Test [1] has as its target T1, CeuE mutant H227L (Campylobacter jejuni, UniProt Q0P8Q4, H247L).
T1 sequence (Q0P8Q4 44-330 H247L): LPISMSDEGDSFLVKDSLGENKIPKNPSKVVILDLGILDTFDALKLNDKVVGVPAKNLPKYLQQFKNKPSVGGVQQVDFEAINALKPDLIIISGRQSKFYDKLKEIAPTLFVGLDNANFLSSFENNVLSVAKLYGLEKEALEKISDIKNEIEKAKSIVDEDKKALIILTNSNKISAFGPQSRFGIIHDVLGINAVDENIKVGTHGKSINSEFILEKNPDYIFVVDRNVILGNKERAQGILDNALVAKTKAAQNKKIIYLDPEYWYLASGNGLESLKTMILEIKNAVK
Nature of the test: Intrinsic fluorescence quenching titration, CeuE mutant H227L. The following applies: 240 nM protein in 40 mM Tris-HCl pH 7.5, 150 mM NaCl; 1:1 binding model; triplicate. The source says:
(§1) The affinities of CeuE for the four Fe-n-Lic complexes were quantified using intrinsic fluorescence quenching, Table 1, with measurements carried out in triplicate. The data were fitted to a 1:1 binding model and analyzed by non-linear regression. […] An attempt to determine the Kd value of Fe-5-Lic by using a more dilute protein solution was unsuccessful because of the inherent decrease in emission intensity reaching the detection limit of the fluorimeter.
(§2) The binding studies with wild type CeuE were followed by titrations to determine the ligand affinity of all five mutants. Fe-5-Lic was chosen because of its strong binding to wild type CeuE and because its linker length matches that of natural catecholate siderophores. Mutation of the Fe(III)-coordinating tyrosine led to a drastic drop in binding affinity in both the single (Y228F) and the double mutants (H227L/Y288F and H227A/Y288F), with Kd values above 1 μM. In contrast, the effect of mutating the histidine was less pronounced. […] However, there is an additional entropic contribution to consider.
(§3) Subsequently, titrations were carried out with Fe-4-Lic, Fe-6-Lic and Fe-8-Lic to identify trends in the affinity for mutants H227L and H227A (Fig. 6(b) and (c)) (Table 1). The resulting Kd values show trends similar to that observed for wild type, but with systematically weaker binding.
(§4) Fluorescence quenching studies with CeuE were carried out on a Hitachi F-4500 fluorescence spectrophotometer as previously reported.
(§5) A 240 nM solution of CeuE in 40 mM Tris-HCl pH 7.5, 150 mM NaCl was prepared and the concentration verified by both the Bradford method and UV-vis absorbance at 280 nm, using the molar absorbance coefficient predicted by ProtParam (15930 mol^−1 dm^3 cm^−1)[43]. The CeuE solution (2 mL) was titrated stepwise with 16 aliquots of a 12 μM Fe-n-Lic solution resulting in a concentration range of Fe-n-Lic of 0 to 1.19 μM. The observed emission intensity was corrected for photomultiplier tube response and buffer subtracted, then integrated between 310 and 410 nm. The data were normalized and analyzed by nonlinear regression using a one-site binding model in DynaFit[26]. Each system was analyzed in triplicate and the average dissociation constants were calculated as reported previously.

Test [2] addresses T2, CeuE mutant H227A (Campylobacter jejuni, UniProt Q0P8Q4, H247A).
T2 sequence (Q0P8Q4 44-330 H247A): T1 sequence (Q0P8Q4 44-330 H247L)
The experiment in a line: Intrinsic fluorescence quenching titration, CeuE mutant H227A. The following applies: 240 nM protein in 40 mM Tris-HCl pH 7.5, 150 mM NaCl; 1:1 binding model; triplicate.
Description: as §1, §2, §3, §4, §5

The target in test [3] is T3, WT CeuE (Campylobacter jejuni, UniProt Q0P8Q4).
T3 sequence (Q0P8Q4 44-330): T1 sequence (Q0P8Q4 44-330 H247L)
The experiment in a line: Intrinsic fluorescence quenching titration, wild type CeuE. The following applies: 240 nM protein in 40 mM Tris-HCl pH 7.5, 150 mM NaCl; 1:1 binding model; triplicate.
Description: as §1, §4, §5

For test [4], the target named is T4, CeuE single mutant Y228F (Campylobacter jejuni, UniProt Q0P8Q4, Y308F).
T4 sequence (Q0P8Q4 44-330 Y308F): T1 sequence (Q0P8Q4 44-330 H247L)
The experiment in a line: Intrinsic fluorescence quenching titration, CeuE single mutant Y228F. It counts as binding. How it is done:
as §2, §4
as §5, with “The observed emission intensity was corrected for photomultiplier tube response and buffer subtracted, then integrated between 310 and 410 nm.” left out

The subject of test [5] is CeuE Y228F mutants. Nature of the test: Circular dichroism of LMCT band, Y228F mutants. It is filed as binding, Campylobacter jejuni. The following applies: 50 μM in 100 mM TRIS buffer, 150 mM NaCl, 0.5% DMSO, pH 7.5. An excerpt: (§6) To confirm that the preference for the Λ-configuration is retained in solution, circular dichroism (CD) spectroscopy was used to probe the ligand-to-metal charge transfer (LMCT) band (Fig. 8(a)). The minimum and maximum of the region of the LMCT band at approximately 408 nm and 595 nm, respectively, are indicative of the Λ-configuration[29], with no CD signal observed in the absence of either the protein or ligand, confirming that the protein selectively binds the Λ-configuration.
(§7) The Y228F mutants gave no signal, confirming a lack of Λ-configuration induction, which may indicate a lack of ligand binding. […] Complexes of H227L and H227A were then prepared with all four Fe-n-Lic complexes.
(§8) Solutions of wild type CeuE and mutant proteins were diluted to 5 × 10^−5 M in buffer containing 150 mM NaCl and 0.11 M Tris, adjusted to pH 7.5. […]
(§9) Spectra were recorded using a solution containing 880 μL 0.11 M Tris pH 7.5, 150 mM NaCl buffer, 100 μL (Fe(III)-n-Lic (n = 4, 5, 6, 8) NTA solution and 20 μL to 5 × 10^−5 M CeuE, resulting in a 50:1 excess of ligand to ensure full binding.
(§10) The spectra were recorded from 300–700 nm and buffer subtracted (data pitch […], scan speed 100 nm min^−1, response 2 seconds, bandwidth 2 nm, path length 1 cm). The spectra were recorded 5 times and averaged.

Test [6] has as its target T5, CeuE double mutant H227A/Y288F (Campylobacter jejuni, UniProt Q0P8Q4, H247A/Y308F).
T5 sequence (Q0P8Q4 44-330 H247A/Y308F): T1 sequence (Q0P8Q4 44-330 H247L)
The experiment in a line: Intrinsic fluorescence quenching titration, CeuE double mutant H227A/Y288F. It counts as binding. On the procedure: as §2, §4
as §5, with “The observed emission intensity was corrected for photomultiplier tube response and buffer subtracted, then integrated between 310 and 410 nm.” left out

Test [7] addresses T6, CeuE double mutant H227L/Y288F (Campylobacter jejuni, UniProt Q0P8Q4, H247L/Y308F).
T6 sequence (Q0P8Q4 44-330 H247L/Y308F): T1 sequence (Q0P8Q4 44-330 H247L)
Nature of the test: Intrinsic fluorescence quenching titration, CeuE double mutant H227L/Y288F. It counts as binding. How it is done:
as §2, §4
as §5, with “The observed emission intensity was corrected for photomultiplier tube response and buffer subtracted, then integrated between 310 and 410 nm.” left out

Test [8] deals with T2, CeuE mutant H227A. The experiment in a line: Circular dichroism of LMCT band, mutant H227A. It is filed as binding. The following applies: 50 μM in 100 mM TRIS buffer, 150 mM NaCl, 0.5% DMSO, pH 7.5.
Description: as §6, §7, §8, §9, §10

Test [9] addresses T1, CeuE mutant H227L. Nature of the test: Circular dichroism of LMCT band, mutant H227L. It counts as binding. The following applies: 50 μM in 100 mM TRIS buffer, 150 mM NaCl, 0.5% DMSO, pH 7.5.
Description: as §6, §7, §8, §9, §10

Where only a bound is given, the exact number is not on record here.

For the compound `O=C(NCCCCNC(=O)c1cccc(O)c1O)c1cccc(O)c1O` [Fe-4-Lic], the equilibrium dissociation constant (Kd) in [1] worked out at 0.09 ± 0.03 µM; in test [2], 0.131 ± 0.028 µM; in test [3], 0.021 ± 0.006 µM.

As for `O=C(NCCCCCNC(=O)c1cccc(O)c1O)c1cccc(O)c1O` [Fe-5-Lic], the Kd in test [1] is 0.022 ± 0.01 µM; in [4] it was above 1 µM; in test [2], 0.035 ± 0.014 µM; in test [6], above 1 µM; in [3], below 0.01 µM; in [7], above 1 µM. Also, the “CD signal of Λ-configuration (LMCT band), Y228F mutants” value in [5] is “no signal”. Further, the “CD signal of Λ-configuration (LMCT band), mutant H227A” value in test [8] was “Λ-configuration signal was observed”. In addition, the “CD signal of Λ-configuration (LMCT band), mutant H227L” value in test [9] is “Λ-configuration signal was observed”.

For `O=C(NCCCCCCNC(=O)c1cccc(O)c1O)c1cccc(O)c1O` [Fe-6-Lic], the values for the Kd in test [1], in test [2] and in test [3] were 0.065 ± 0.021 µM, 0.041 ± 0.007 µM and 0.033 ± 0.008 µM, respectively.

In the case of `O=C(NCCCCCCCCNC(=O)c1cccc(O)c1O)c1cccc(O)c1O` [Fe-8-Lic], the figures for the Kd in test [1], in [2] and in [3] were 0.112 ± 0.021 µM, 0.125 ± 0.036 µM and 0.058 ± 0.008 µM, respectively.

For the origin of these results see article PMC5382913, “Interactions of the periplasmic binding protein CeuE with Fe(III) n-LICAM^4− siderophore analogues of varied linker length” (Scientific Reports, 2017).
